Where two headings read alike, the source gives them in different places.
Assays:
[1] = target: T1, JAK2 (Homo sapiens, UniProt O60674); experiment: Recombinant Human JAK2 Kinase Assay (TRF); assay type: biochemical; details: read-out: JAK2 Potency
T1 construct: host or cells: baculovirus expression system
Summary of the method: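 Baculovirus-expressed JAK2 (15 ng/ml) phosphorylated a biotinylated 15-mer peptide captured on Neutravidin-coated plates, in 20 mM HEPES pH 7.2 with 0.2 μM ATP, 1 mM MnCl2, 0.1% BSA and 2.5% DMSO. Reaction ran 20 min at room temperature; phosphopeptide was detected by time-resolved fluorescence with Eu-N1-labelled PY100 antibody.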

[2] = target: T2, ALK (Homo sapiens, UniProt Q9UM73); experiment: ALK Kinase Assay (ELISA/TRF, PLC-γ substrate); assay type: biochemical; details: read-out: ALK Potency
T2 construct: host or cells: baculovirus expression system
Summary of the method: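 IC50 values derive from percent inhibition plotted against log10 compound concentration and fitted to a variable-slope sigmoidal equation. The underlying reaction used 30 ng/ml ALK acting on immobilized PLC-γ (10 μg/mL in TBS) at 37° C for 15 minutes, read with Eu-N1 PT66 antibody.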

[3] = JAK2 kinase inhibition, 0.2 μM ATP
[4] = ALK kinase inhibition, 1 μM ATP

T2 sequence (Q9UM73 19-1620): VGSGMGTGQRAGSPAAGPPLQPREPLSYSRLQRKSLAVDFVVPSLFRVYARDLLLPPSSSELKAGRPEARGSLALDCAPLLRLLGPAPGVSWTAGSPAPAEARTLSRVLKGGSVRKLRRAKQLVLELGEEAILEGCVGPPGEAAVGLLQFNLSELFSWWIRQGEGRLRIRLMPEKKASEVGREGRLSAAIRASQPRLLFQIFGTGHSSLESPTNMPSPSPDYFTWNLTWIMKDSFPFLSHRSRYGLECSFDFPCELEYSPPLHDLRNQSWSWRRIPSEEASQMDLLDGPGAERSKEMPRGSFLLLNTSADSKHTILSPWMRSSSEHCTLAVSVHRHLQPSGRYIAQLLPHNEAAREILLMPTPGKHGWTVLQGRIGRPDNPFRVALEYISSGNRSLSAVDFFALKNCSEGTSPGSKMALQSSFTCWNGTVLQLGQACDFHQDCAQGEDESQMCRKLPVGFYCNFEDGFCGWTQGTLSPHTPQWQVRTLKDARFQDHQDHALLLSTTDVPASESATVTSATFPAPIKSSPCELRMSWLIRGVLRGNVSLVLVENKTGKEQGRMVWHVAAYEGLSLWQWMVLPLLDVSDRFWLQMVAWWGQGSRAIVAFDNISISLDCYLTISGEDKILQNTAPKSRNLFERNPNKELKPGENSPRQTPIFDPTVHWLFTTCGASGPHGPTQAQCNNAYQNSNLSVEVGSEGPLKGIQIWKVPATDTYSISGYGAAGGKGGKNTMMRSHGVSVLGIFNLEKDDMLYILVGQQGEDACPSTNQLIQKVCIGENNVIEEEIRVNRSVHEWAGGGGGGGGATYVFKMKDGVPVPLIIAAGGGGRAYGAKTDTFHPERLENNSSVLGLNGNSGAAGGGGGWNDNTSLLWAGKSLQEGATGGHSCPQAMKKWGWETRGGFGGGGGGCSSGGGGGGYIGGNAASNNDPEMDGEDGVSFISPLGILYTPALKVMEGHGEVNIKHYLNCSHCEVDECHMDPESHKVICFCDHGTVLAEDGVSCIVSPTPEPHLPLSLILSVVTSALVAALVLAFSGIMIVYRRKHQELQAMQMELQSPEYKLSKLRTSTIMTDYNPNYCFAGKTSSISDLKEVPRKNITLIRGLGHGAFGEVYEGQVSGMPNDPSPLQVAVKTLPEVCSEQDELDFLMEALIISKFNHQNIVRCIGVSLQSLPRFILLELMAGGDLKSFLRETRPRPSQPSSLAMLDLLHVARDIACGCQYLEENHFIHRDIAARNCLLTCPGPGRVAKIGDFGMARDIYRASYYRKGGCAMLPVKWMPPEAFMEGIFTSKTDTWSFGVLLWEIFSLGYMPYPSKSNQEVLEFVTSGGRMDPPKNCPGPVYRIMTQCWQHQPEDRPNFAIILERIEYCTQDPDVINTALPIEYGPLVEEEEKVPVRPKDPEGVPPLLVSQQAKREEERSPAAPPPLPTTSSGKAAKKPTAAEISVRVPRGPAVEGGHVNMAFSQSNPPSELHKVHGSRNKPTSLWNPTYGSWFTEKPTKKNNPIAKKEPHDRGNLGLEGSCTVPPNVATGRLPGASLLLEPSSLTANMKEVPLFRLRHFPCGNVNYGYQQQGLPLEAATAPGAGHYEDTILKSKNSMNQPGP
T1 sequence (O60674 whole entry): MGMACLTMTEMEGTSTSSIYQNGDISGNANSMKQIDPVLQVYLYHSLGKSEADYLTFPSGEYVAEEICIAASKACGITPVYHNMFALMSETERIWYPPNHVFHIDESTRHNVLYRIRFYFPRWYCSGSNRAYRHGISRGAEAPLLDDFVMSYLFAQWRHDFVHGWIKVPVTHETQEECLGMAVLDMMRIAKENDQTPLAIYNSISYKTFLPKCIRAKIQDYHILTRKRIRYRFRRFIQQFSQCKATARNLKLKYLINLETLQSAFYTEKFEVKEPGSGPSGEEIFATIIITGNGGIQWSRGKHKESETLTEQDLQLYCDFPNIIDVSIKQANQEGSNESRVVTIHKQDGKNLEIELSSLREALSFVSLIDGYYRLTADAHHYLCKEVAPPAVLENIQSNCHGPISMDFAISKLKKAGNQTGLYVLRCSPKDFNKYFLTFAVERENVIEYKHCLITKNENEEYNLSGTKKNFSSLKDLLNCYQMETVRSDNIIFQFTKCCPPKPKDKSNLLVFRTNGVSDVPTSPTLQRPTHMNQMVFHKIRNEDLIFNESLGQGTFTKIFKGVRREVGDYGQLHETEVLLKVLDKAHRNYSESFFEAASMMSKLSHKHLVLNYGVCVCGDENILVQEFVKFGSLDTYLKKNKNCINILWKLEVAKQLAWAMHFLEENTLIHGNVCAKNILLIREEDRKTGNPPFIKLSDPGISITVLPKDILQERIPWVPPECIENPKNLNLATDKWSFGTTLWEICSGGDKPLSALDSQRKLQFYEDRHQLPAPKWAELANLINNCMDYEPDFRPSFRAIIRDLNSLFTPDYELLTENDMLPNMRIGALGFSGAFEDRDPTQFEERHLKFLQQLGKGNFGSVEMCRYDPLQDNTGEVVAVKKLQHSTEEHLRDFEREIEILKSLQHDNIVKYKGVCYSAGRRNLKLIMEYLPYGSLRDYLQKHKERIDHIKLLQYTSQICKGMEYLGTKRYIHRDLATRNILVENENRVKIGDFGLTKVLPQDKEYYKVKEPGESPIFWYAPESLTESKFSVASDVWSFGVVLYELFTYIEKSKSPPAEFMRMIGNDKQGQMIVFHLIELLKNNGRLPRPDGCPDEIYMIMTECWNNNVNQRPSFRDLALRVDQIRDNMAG

| IC50 ([1]; JAK2 Kinase Inhibition) [nM] | IC50 ([2]; ALK Kinase Inhibition) [nM] | IC50 [1, 3] [nM] | IC50 [2, 4] [nM] | Compound |
| --- | --- | --- | --- | --- |
| 100 to 1000 | < 100 | – | – | COc1cc(N2CCC(N3CCC(F)(F)CC3)CC2)ccc1Nc1ncc2ccc(-c3ccccc3OC)n2n1 [Example 1475, [4-(4,4-Difluoro-[1,4′]bipiperidinyl-1′-yl)-2-methoxy-phenyl]-[7-(2-methoxy-phenyl)-pyrrolo[2,1-f][1,2,4]triazin-2-yl]-amine] |
| – | – | < 100 | 1000 to 10000 | COc1ccc(-c2ccc3cnc(Nc4ccc5ncn(C)c5c4)nn23)cn1 [Example 1307, [7-(6-Methoxy-pyridin-3-yl)-pyrrolo[2,1-f][1,2,4]triazin-2-yl]-(3-methyl-3H-benzimidazol-5-yl)-amine] |
| < 100 | < 100 | – | – | COc1cc(N2CCCC(N3CCN(C(C)=O)CC3)C2)ccc1Nc1ncc2ccc(-c3ccccc3OC)n2n1 (centres unmarked) [Example 232, 1-[4-(1-{3-Methoxy-4-[7-(2-methoxy-phenyl)-pyrrolo[2,1-f][1,2,4]triazin-2-ylamino]-phenyl}-piperidin-3-yl)-piperazin-1-yl]-ethanone] |
| – | – | < 100 | < 100 | COc1cc(N2CCC(N3CCOCC3)CC2)ccc1Nc1ncc2ccc(-c3cccc4c3OCCO4)n2n1 [Example 546, [7-(2,3-Dihydro-1,4-benzodioxin-5-yl)-pyrrolo[2,1-f][1,2,4]triazin-2-yl]-[2-methoxy-4-(4-morpholin-4-yl-piperidin-1-yl)-phenyl]-amine] |
| – | – | 100 to 1000 | < 100 | COc1cc(C2CCN(CCO)CC2)ccc1Nc1ncc2ccc(-c3cccc(S(=O)(=O)NC4CC4)c3)n2n1 [Example 698] |
| – | – | 100 to 1000 | < 100 | COc1cc([C@@H]2CCN(CCO)C[C@@H]2O)ccc1Nc1ncc2ccc(-c3ccccc3N(C)S(C)(=O)=O)n2n1 (racemic) [Example 847, (±)-N-[2-(2-{4-[(3R,4S)-3-Hydroxy-1-(2-hydroxy-ethyl)-piperidin-4-yl]-2-methoxy-phenylamino}-pyrrolo[2,1-f][1,2,4]triazin-7-yl)-phenyl]-N-methyl-methanesulfonamide] |
| – | – | < 100 | 1000 to 10000 | CC(C)(C)NS(=O)(=O)c1cccc(-c2ccc3cnc(Nc4ccc5nc(C(C)(C)C)[nH]c5c4)nn23)c1 [Example 1330, N-tert-Butyl-3-[2-(2-tert-butyl-3H-benzimidazol-5-ylamino)-pyrrolo[2,1-f][1,2,4]triazin-7-yl]-benzenesulfonamide] |
| < 100 | 1000 to 10000 | – | – | FC1(F)Oc2cccc(-c3ccc4cnc(Nc5ccc6c(c5)CCC(N5CCOCC5)CC6)nn34)c2O1 (centres unmarked) [Example 1535, [7-(2,2-Difluoro-benzo[1,3]dioxol-4-yl)-pyrrolo[2,1-f][1,2,4]triazin-2-yl]-(7-morpholin-4-yl-6,7,8,9-tetrahydro-5H-benzocyclohepten-2-yl)-amine] |
| – | – | < 100 | 1000 to 10000 | O=S1(=O)CCN(Cc2ccc(Nc3ncc4ccc(-c5cccnc5)n4n3)cc2)CC1 [Example 1050, [4-(1,1-Dioxo-1$1(6)-thiomorpholin-4-ylmethyl)-phenyl]-(7-pyridin-3-yl-pyrrolo[2,1-f][1,2,4]triazin-2-yl)-amine] |
| – | – | < 100 | 1000 to 10000 | c1cc(Sc2ccc3cnc(Nc4ccc(N5CCOCC5)cc4)nn23)ccn1 [Example 1116, (4-Morpholin-4-yl-phenyl)-[7-(pyridin-4-ylsulfanyl)-pyrrolo[2,1-f][1,2,4]triazin-2-yl]-amine] |
| < 100 | 1000 to 10000 | – | – | c1ccc(-c2ccc3cnc(Nc4ccc5nc[nH]c5c4)nn23)nc1 [Example 1562, (3H-Benzimidazol-5-yl)-(7-pyridin-2-yl-pyrrolo[2,1-f][1,2,4]triazin-2-yl)-amine] |
| < 100 | < 100 | – | – | COc1ccccc1-c1ccc2cnc(Nc3ccc(N4CCN(CC(C)(C)O)CC4)cc3)nn12 [Example 221, 1-(4-{4-[7-(2-Methoxy-phenyl)-pyrrolo[2,1-f][1,2,4]triazin-2-ylamino]-phenyl}-piperazin-1-yl)-2-methyl-propan-2-ol] |
| < 100 | 1000 to 10000 | – | – | CN1CCN(C2CCN(c3ccc(Nc4ncc5cc6ccccc6n5n4)cc3)CC2)CC1 [Example 264, {4-[4-(4-Methyl-piperazin-1-yl)-piperidin-1-yl]-phenyl}-[1,2,4]triazino[1,6-a]indol-2-yl-amine] |
| – | – | < 100 | < 100 | Cc1cc(Nc2ncc3ccc(-c4cccc(S(C)(=O)=O)c4)n3n2)ccc1C1CCN(CC(N)=O)CC1 [Example 948, 2-(4-{4-[7-(3-Methanesulfonyl-phenyl)-pyrrolo[2,1-f][1,2,4]triazin-2-ylamino]-2-methyl-phenyl}-piperidin-1-yl)-acetamide] |
| – | – | 100 to 1000 | < 100 | COc1cc(C2CCN(C)CC2C)ccc1Nc1ncc2ccc(-c3ccccc3OC)n2n1 (racemic) [Example 858, (±)-[4-(1,3-Dimethyl-piperidin-4-yl)-2-methoxy-phenyl]-[7-(2-methoxy-phenyl)-pyrrolo[2,1-f][1,2,4]triazin-2-yl]-amine] |
| – | – | 1000 to 10000 | 1000 to 10000 | COc1cc(C2CCN(CC(N)=O)CC2)ccc1Nc1ncc2cc(C)c(-c3ccccc3N(C)S(C)(=O)=O)n2n1 [Example 515, 2-[4-(4-{7-[2-(Methanesulfonyl-methyl-amino)-phenyl]-6-methyl-pyrrolo[2,1-f][1,2,4]triazin-2-ylamino}-3-methoxy-phenyl)-piperidin-1-yl]-acetamide] |
| < 100 | 1000 to 10000 | – | – | COc1cccc(Nc2ncc3ccc(-c4cc(Cl)ccc4OC)n3n2)c1 [Example 144, [7-(5-Chloro-2-methoxy-phenyl)-pyrrolo[2,1-f][1,2,4]triazin-2-yl]-(3-methoxy-phenyl)-amine] |
| – | – | < 100 | 100 to 1000 | CN1CCN(c2cccc(Nc3ncc4ccc(-c5cnn(S(C)(=O)=O)c5)n4n3)c2)CC1 [Example 950, [7-(1-Methanesulfonyl-1H-pyrazol-4-yl)-pyrrolo[2,1-f][1,2,4]triazin-2-yl]-[3-(4-methyl-piperazin-1-yl)-phenyl]-amine] |
| < 100 | 100 to 1000 | – | – | COc1cccc(-c2ccc3cnc(Nc4ccc(N5CCN(C)CC5)cc4)nn23)c1 [Example 423, [7-(3-Methoxy-phenyl)-pyrrolo[2,1-f][1,2,4]triazin-2-yl]-[4-(4-methyl-piperazin-1-yl)-phenyl]-amine] |
| – | – | 100 to 1000 | < 100 | COc1cc(N2CCCN(C)CC2)ccc1Nc1ncc2ccc(-c3ccccc3OC)n2n1 [Example 765, [2-Methoxy-4-(4-methyl-[1,4]diazepan-1-yl)-phenyl]-[7-(2-methoxy-phenyl)-pyrrolo[2,1-f][1,2,4]triazin-2-yl]-amine] |
| < 100 | 100 to 1000 | – | – | Fc1cccc(-c2ccc3cnc(Nc4cccc(N5CCOCC5)c4)nn23)c1 [Example 175, [7-(3-Fluoro-phenyl)-pyrrolo[2,1-f][1,2,4]triazin-2-yl]-(3-morpholin-4-yl-phenyl)-amine] |
| < 100 | < 100 | – | – | CC(C)(C)NS(=O)(=O)c1cccc(-c2ccc3cnc(Nc4cccc(C5(O)CCNCC5)c4)nn23)c1 [Example 1550, N-tert-Butyl-3-{2-[3-(4-hydroxy-piperidin-4-yl)-phenylamino]-pyrrolo[2,1-f][1,2,4]triazin-7-yl}-benzenesulfonamide] |
